The values below come from patent US6949574B2 (Bristol-Myers Squibb Company, priority 2002, dated 2005).

Tested on in the first series: not given
Test: not given
Conditions: not given
`O=C(Nc1ccccc1Oc1ccccc1)O/N=C/c1ccc(F)cc1` [Example 89, 4-Fluorobenzaldehyde, O-[[(2-phenoxyphenyl)amino]carbonyl]oxime]: the melting point (as a rule, the temperature of the solid-liquid transition) lay in the range of 141.5 to 142 °C. In the case of `O=C(Nc1ccccc1Oc1ccccc1)O/N=C/c1ccccc1` [Example 90, Benzaldehyde, O-[[(2-phenoxyphenyl)amino]carbonyl]oxime], the melting point was 141.5 to 142 °C.

A further series concerns the target T1, human FAAH (Homo sapiens, UniProt O00519).
T1 construct: expressed in transfected cells; host or cells: H4 cells (H4-FAAH, Geneticin-selected); crude membrane homogenates
T1 sequence (O00519 1-579): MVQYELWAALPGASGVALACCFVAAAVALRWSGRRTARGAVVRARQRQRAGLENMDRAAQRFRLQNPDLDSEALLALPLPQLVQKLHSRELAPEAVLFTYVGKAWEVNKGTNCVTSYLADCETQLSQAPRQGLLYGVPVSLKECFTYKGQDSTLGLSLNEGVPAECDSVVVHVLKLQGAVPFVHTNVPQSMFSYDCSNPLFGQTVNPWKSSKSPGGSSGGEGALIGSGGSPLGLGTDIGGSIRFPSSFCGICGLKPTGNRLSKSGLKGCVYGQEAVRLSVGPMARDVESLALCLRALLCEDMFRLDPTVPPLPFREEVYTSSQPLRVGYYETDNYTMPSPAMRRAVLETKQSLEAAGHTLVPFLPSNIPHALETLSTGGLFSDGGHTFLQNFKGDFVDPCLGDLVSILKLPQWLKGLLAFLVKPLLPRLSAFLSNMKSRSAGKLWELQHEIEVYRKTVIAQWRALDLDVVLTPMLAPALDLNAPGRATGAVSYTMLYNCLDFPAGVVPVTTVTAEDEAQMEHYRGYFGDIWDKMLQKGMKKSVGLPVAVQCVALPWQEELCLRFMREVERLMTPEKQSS
The experiment in a line: FAAH activity in membrane homogenates of H4-FAAH cells, [3H]-anandamide hydrolysis. It is filed as biochemical.
Conditions: not given
In a few lines: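 Membranes (240 ng protein) from H4 cells expressing transfected human FAAH, incubated 1 h at room temperature in 125 mM Tris-Cl, pH 9.0, with 1.67 nM [3H]-anandamide plus 10 μM anandamide. Aqueous [3H]-ethanolamine counted after methanol/dichloroethane extraction; background set with 10 μM ATFMK. IC50 from four-parameter logistic fit.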
In the case of `CCc1ccc(-c2ccc(NC(=O)Oc3ccccc3F)cc2)cc1` [Example 124, 4′-Ethyl-[1,1′-biphenyl]-4-ylcarbamic acid, 2-fluorophenyl ester], the IC50 (commonly the concentration that gives 50% inhibition) was more than 0.5 µM.

Staying with this series, now noted: H4-FAAH cell membranes, 10 μM anandamide, room temperature, one hour; read-out: IC50.
As for `O=C(Nc1ccccc1Oc1ccccc1)O/N=C/c1ccc(F)cc1` [Example 89, 4-Fluorobenzaldehyde, O-[[(2-phenoxyphenyl)amino]carbonyl]oxime], the IC50 was more than 0.5 µM.

On to `O=C(Nc1ccccc1Oc1ccccc1)O/N=C/c1ccccc1` [Example 90, Benzaldehyde, O-[[(2-phenoxyphenyl)amino]carbonyl]oxime], for which the IC50 fell in the range of 0.01 to 0.1 µM. Still for that read-out and setting: as for `CCCCOc1ccc(CNC(=O)Oc2ccc3ccccc3c2)cc1` [Example 116, 4-(Butoxyphenylmethyl)carbamic acid, 2-naphthalenyl ester], the figure is 0.01 to 0.1 µM; as for `CCCCOc1ccc(CNC(=O)Oc2ccc(C(C)C)cc2)cc1` [Example 117, 4-(Butoxyphenylmethyl)carbamic acid, 4-(1-methylethyl)phenyl ester], 0.01 to 0.1 µM. Regarding `CCCCOc1ccc(CNC(=O)Oc2cccc(N(C)C)c2)cc1` [Example 118, 4-(Butoxyphenylmethyl)carbamic acid, 3-(dimethylamino)phenyl ester], the IC50 lay in the range of 0.01 to 0.1 µM. Consider `CCCCOc1ccc(CNC(=O)Oc2ccc(C(F)(F)F)cc2)cc1` [Example 119, 4-(Butoxyphenylmethyl)carbamic acid, 4-(trifluoromethyl)phenyl ester], for which the half-inhibitory concentration (IC50) is 0.01 to 0.1 µM.

Take `CCCCOc1ccc(CNC(=O)Oc2ccc(F)cc2F)cc1` [Example 120, 4-(Butoxyphenylmethyl)carbamic acid, 2,4-difluorophenyl ester]: the IC50 is less than 0.01 µM. Turning to `CCCCOc1ccc(CNC(=O)Oc2ccc(F)cc2)cc1` [Example 121, 4-(Butoxyphenylmethyl)carbamic acid, 4-fluorophenyl ester], the IC50 is less than 0.01 µM.

For `CCCCOc1ccc(CNC(=O)Oc2cccc(Cl)c2)cc1` [Example 122, 4-(Butoxyphenylmethyl)carbamic acid, 3-chlorophenyl ester], the IC50 fell in the range of 0.01 to 0.1 µM. Consider `O=C(Nc1ccc(Oc2ccccc2)cc1)Oc1ccccc1F` [Example 123, 4-Phenoxyphenylcarbamic acid, 2-fluorophenyl ester], for which the IC50 is more than 0.5 µM. With `CCCCOc1ccc(C(CC)NC(=O)Oc2ccc(OC)cc2)cc1` (stereo not drawn) [Example 126, [1-(4-Butoxy-phenyl)-propyl]-carbamic acid 4-methoxy-phenyl ester], the IC50 fell in the range of 0.01 to 0.1 µM.

For the compound `CCCCOc1ccc(C(CC)NC(=O)Oc2cccc3ccccc23)cc1` (stereo not drawn) [Example 127, [1-(4-Butoxy-phenyl)-propyl]-carbamic acid naphthalen-1-yl ester], the IC50 fell in the range of 0.101 to 0.5 µM. The same measure, in the same setting: as for `CCCCOc1ccc(C(CC)NC(=O)Oc2ccc3ccccc3c2)cc1` (stereo not drawn) [Example 128, [1-(4-Butoxy-phenyl)-propyl]-carbamic acid naphthalen-2-yl ester], the figure is 0.01 to 0.1 µM; as for `CCCCOc1ccc(C(CC)NC(=O)Oc2ccc(C(C)C)cc2)cc1` (stereo not drawn) [Example 129, [1-(4-Butoxy-phenyl)-propyl]-carbamic acid 4-isopropyl-phenyl ester], 0.101 to 0.5 µM; as for `CCCCOc1ccc(C(CC)NC(=O)Oc2cccc(C(F)(F)F)c2)cc1` (stereo not drawn) [Example 130, [1-(4-Butoxy-phenyl)-propyl]-carbamic acid 3-trifluoromethyl-phenyl ester], 0.01 to 0.1 µM. As for `CCCCOc1ccc(C(CC)NC(=O)Oc2ccc(F)cc2F)cc1` (stereo not drawn) [Example 131, [1-(4-Butoxy-phenyl)-propyl]-carbamic acid 2,4-difluoro-phenyl ester], the 50% inhibitory concentration (IC50) fell in the range of 0.01 to 0.1 µM.

In the case of `CCCCOc1ccc(C(CC)NC(=O)Oc2ccc(F)cc2)cc1` (stereo not drawn) [Example 132, [1-(4-Butoxy-phenyl)-propyl]-carbamic acid 4-fluoro-phenyl ester], the IC50 was 0.01 to 0.1 µM.

In the case of `CCCCOc1ccc(C(CC)NC(=O)Oc2ccccc2)cc1` (stereo not drawn) [Example 134, [1-(4-Butoxy-phenyl)-propyl]-carbamic acid phenyl ester], the IC50 was 0.01 to 0.1 µM. As for `CCCCOc1ccc(C(CC)NC(=O)Oc2ccccc2F)cc1` (stereo not drawn) [Example 135, [1-(4-Butoxy-phenyl)-propyl]-carbamic acid 2-fluoro-phenyl ester], the IC50 is less than 0.01 µM.

As for `CCCCCCCCC(=O)Nc1ccc(NC(=O)O/N=C/c2ccccc2)cc1` [Example 136, Benzaldehyde, O-[[(4-Nonanoylamino-phenyl)amino]carbonyl]oxime], the IC50 fell in the range of 0.01 to 0.1 µM.

On to `CCCCCCCCC(=O)Nc1ccc(NC(=O)O/N=C/c2ccc(F)cc2)cc1` [Example 137, 4-Fluorobenzaldehyde, O-[[(4-Nonanoylamino-phenyl)amino]carbonyl]oxime], for which the half-maximal inhibitory concentration (IC50) is 0.01 to 0.1 µM. The same measure, in the same setting: as for `CCCCCCCCC(=O)Nc1ccc(NC(=O)O/N=C/c2cccc(C(F)(F)F)c2)cc1` [Example 138, 3-Trifluoromethylbenzaldehyde, O-[[(4-Nonanoylamino-phenyl)amino]carbonyl]oxime], the figure is 0.01 to 0.1 µM. Consider `CCCCCCCCC(=O)Nc1ccc(NC(=O)O/N=C/c2ccc(F)cc2F)cc1` [Example 139, 2,4-Difluorobenzaldehyde, O-[[(4-Nonanoylamino-phenyl)amino]carbonyl]oxime], for which the IC50 was less than 0.01 µM. For `CCCCCCCCC(=O)Nc1ccc(NC(=O)O/N=C/c2ccc(F)c(F)c2)cc1` [Example 140, 3,4-Difluorobenzaldehyde, O-[[(4-Nonanoylamino-phenyl)amino]carbonyl]oxime], the IC50 was in the range of 0.01 to 0.1 µM. `O=C(Nc1ccc2[nH]ccc2c1)O/N=C/c1cccnc1` [Example 141, 3-Pyridinecarboxaldehyde, O-[[(1H-indol-5-yl)amino]carbonyl]oxime]: the concentration for half-maximal inhibition (IC50) was more than 0.5 µM.

In the case of `O=C(Nc1ccc2[nH]ccc2c1)O/N=C/c1ccc(F)cc1` [Example 142, 4-Fluorobenzaldehyde, O-[[(1H-indol-5-yl)amino]carbonyl]oxime], the IC50 was more than 0.5 µM.

Regarding `O=C(Nc1ccc2[nH]ccc2c1)O/N=C/c1ccccc1` [Example 143, Benzaldehyde, O-[[(1H-indol-5-yl)amino]carbonyl]oxime], the IC50 is more than 0.5 µM. For the compound `O=C(Nc1c[nH]c2ccccc12)O/N=C/c1ccc(F)cc1` [Example 144, 4-Fluorobenzaldehyde, O-[[(1H-indol-3-yl)amino]carbonyl]oxime], the IC50 is more than 0.5 µM.

For `O=C(Nc1c[nH]c2ccccc12)O/N=C/c1ccccc1` [Example 145, Benzaldehyde, O-[[(1H-indol-3-yl)amino]carbonyl]oxime], the IC50 was more than 0.5 µM. For `O=C(Nc1ccc(Oc2ccncc2)cc1)O/N=C/c1ccc(F)cc1` [Example 146, 4-Fluorobenzaldehyde, O-[[[4-[(4-pyridinyl)oxy]phenyl]amino]carbonyl]oxime], the IC50 lay within 0.101 to 0.5 µM. Same read-out and setting: next, `O=C(Nc1ccc(Oc2ccccn2)cc1)O/N=C/c1cccnc1` [Example 147, 3-Pyridinecarboxaldehyde, O-[[[4-[(2-pyridinyl)oxy]phenyl]amino]carbonyl]oxime]: 0.101 to 0.5 µM; `O=C(Nc1ccc(Oc2ccccn2)cc1)O/N=C/c1ccc(F)cc1` [Example 148, 4-Fluorobenzaldehyde, O-[[[4-[(2-pyridinyl)oxy]phenyl]amino]carbonyl]oxime]: 0.01 to 0.1 µM; `O=C(Nc1ccc(Oc2ccccn2)cc1)O/N=C/c1ccccc1` [Example 149, Benzaldehyde, O-[[[4-[(2-pyridinyl)oxy]phenyl]amino]carbonyl]oxime]: 0.01 to 0.1 µM. As for `O=C(Nc1ccc(Oc2cccnc2)cc1)O/N=C/c1ccc(F)cc1` [Example 150, 4-Fluorobenzaldehyde, O-[[[4-[(3-pyridinyl)oxy]phenyl]amino]carbonyl]oxime], the IC50 was less than 0.01 µM.

For `O=C(Nc1ccc(Oc2cccnc2)cc1)O/N=C/c1ccccc1` [Example 151, Benzaldehyde, O-[[[4-[(3-pyridinyl)oxy]phenyl]amino]carbonyl]oxime], the half-maximal inhibitory concentration (IC50) was less than 0.01 µM. Regarding `O=C(Nc1ccc2oc3ccccc3c2c1)O/N=C/c1cccnc1` [Example 152, 3-Pyridinecarboxaldehyde, O-[[(2-dibenzofuranyl)amino]carbonyl]oxime], the IC50 is 0.101 to 0.5 µM. Take `O=C(Nc1ccc2oc3ccccc3c2c1)O/N=C/c1ccc(F)cc1` [Example 153, 4-Fluorobenzaldehyde, O-[[(2-dibenzofuranyl)amino]carbonyl]oxime]: the 50% inhibitory concentration (IC50) fell in the range of 0.01 to 0.1 µM.

On to `O=C(Nc1ccc2oc3ccccc3c2c1)O/N=C/c1ccccc1` [Example 154, Benzaldehyde, O-[[(2-dibenzofuranyl)amino]carbonyl]oxime], for which the IC50 fell in the range of 0.01 to 0.1 µM.

Take `CCCCOc1ccc(NC(=O)O/N=C(/C)Cl)cc1` [Example 155, (1Z)-N-[[[(4-butoxyphenyl)amino]carbonyl]oxy]ethanimidoyl chloride]: the IC50 was less than 0.01 µM.
